Entries after “also recorded” stand apart in the source; their conditions may differ.
Assays:
[1] = test system: PME defect of rad-23 deficient animals (proteasome pathway); assay: PME microscopy assay in rad-23(tm2595) crosses; format: in vivo, C. elegans; settings: 50 μM, 64-cell embryos (FIG. 3d)
Description: FIG. 3. Resveratrol isomers target CPS-6 to affect PME. a, b, Both cis-resveratrol and trans-resveratrol act paternally to affect PME. The numbers of MTR-stained paternal mitochondrial clusters in embryos at 64-cell (a) or 16-cell (b) stage from the indicated crosses were scored. N2 males or hermaphrodites were pretreated with 0.25% ethanol (Mock), 50 μM cis-resveratrol (a), or 50 μM trans-resveratrol (b) as indicated before mating. c-g, Quantification of MTR-stained paternal mitochondrial clusters in 64-cell embryos from the indicated crosses treated with 0.25% ethanol (Mock), 50 μM cis-resveratrol, and 50 μM trans-resveratrol, respectively. Alleles used are lgg-1(bp523), cps-6(tm3222) and rad-23(tm2595). Data are mean s.e.m; n≥15 embryos (a) and n≥20 embryos (b, c-g) were scored in each experiment. ***P<0.001; n.s., not significant, two-sided, unpaired t-test. h, Resveratrol isomers enhance or inhibit the nuclease activity of CPS-6 in a plasmid DNA cleavage assay. 10 ng of CPS-6 were incubated with 0.25% ethanol (Mock), 20 μM cis-resveratrol, or 20 μM trans-resveratrol in dark at 4° C. for 1.5 hours, before 1 μg of the pPD49.78 plasmid DNA were added to the reactions. After further incubation at 30° C. for 1 hour, the reactions were resolved on a 1% agarose gel. Three different forms of plasmid DNA are indicated. […]

[2] = test system: PME defect of lgg-1(bp523) embryos (autophagy pathway); assay: PME microscopy assay in lgg-1(bp523) crosses; format: in vivo, C. elegans; settings: 50 μM, 64-cell embryos (FIG. 3c)
Description: (§1) The numbers of MTR-stained paternal mitochondrial clusters were scored as in FIG. 1a. cps-6(tm3222) and lgg-1(bp523) alleles were used in the assays. Data are mean±s.e.m. n=20 embryos (b) and 15 embryos (c) in each experiment. **P<0.01; ***P<0.001; n.s., not significant, two-sided, unpaired t-test.
(§2) To investigate how these six compounds might affect PME, the present inventors performed chemical genetic analysis to analyze the PME pathways that might be affected by the compounds. The present inventors first examined whether they might affect the paternal PME pathway mediated by the mitochondrial endonuclease CPS-6, whose activity is inhibited by oxidation and protected by reducing agents.

[3] = test system: paternal mitochondrial elimination (PME) in C. elegans wild-type (N2) cross-fertilized embryos; assay: PME fluorescent microscopy assay (MTR-stained paternal mitochondrial clusters), N2 males x N2 hermaphrodites; format: in vivo; settings: for effect on PME when males were treated: 50 μM pretreatment of males before mating (FIG. 3a, b); for dynamics of PME at different embryonic stages: 50 μM vs 0.25% ethanol mock (FIG. 1g, FIG. 12); for effect on PME: 64-cell embryos (FIG. 1b, d); for effect on PME of the UV-irradiated solution: compound irradiated with UV for 4 hours, 64-cell embryos (FIG. 1e, f); for concentration sufficient to significantly affect PME / concentration showing maximal PME activity: dose series (FIG. 7a, b); for concentration sufficient to significantly affect PME: cis: inhibition, 64-cell, trans: enhancement, 16-cell; for concentration showing maximal PME activity: cis: inhibitory, trans: enhancing
Description: FIG. 1. […] The numbers of MTR-stained paternal mitochondrial clusters in 64-cell cross-fertilized embryos from mating of MTR-stained N2 males with N2 hermaphrodites in the presence of the indicated compounds (100 μM) were scored. n≥15 embryos for each compound. b, d-g, Quantification of MTR-stained paternal mitochondrial clusters in 64-cell stage embryos (b, d-f) or in embryos at the indicated stage (g) from the cross between MTR-stained N2 males and N2 hermaphrodites, in the presence of 0.25% ethanol (Mock) or 50 μM of the indicated compound. In each experiment, n>40 embryos (b,d,e), n=20 embryos (f), and n≥10 embryos (g) were scored, respectively. […] Data are mean±s.e.m. **P<0.01, ***P<0.001; n.s., not significant, two-sided, unpaired t-test.
FIG. 7. Effects of different dosages of resveratrol isomers on PME. a, b, The effects of different dosages of cis-resveratrol (a) and trans-resveratrol (b) on PME. The numbers of MTR-stained paternal mitochondrial clusters in 64-cell embryos (a) or 16-cell embryos (b) from mating of MTR-stained N2 males with N2 hermaphrodites in the presence of the indicated concentrations of resveratrol isomers were scored. […] N2 hermaphrodites and MTR-stained uaDf5/+ males were mated as indicated in the presence of 0.25% ethanol (Mock, d), 50 μM trans-resveratrol (e), or 50 μM cis-resveratrol (f). Males also carried smIs42, an integrated Psur-5sur-5::gfp transgene, which directs GFP expression in all somatic cells in most developmental stages, and was used to track cross progeny. A single cross-fertilized embryo or larva (MTR- or GFP-positive) at the indicated stage was analyzed by PCR. uaDf5/+ and N2 hermaphrodites were controls.
FIG. 12. […] Quantification of MTR-stained paternal mitochondrial clusters at the indicated embryonic stages from the cross between MTR-stained N2 males and N2 hermaphrodites, in the presence of 0.25% ethanol (Mock) or 50 μM of the indicated compound. In each experiment, n≥10 embryos embryos. Data are mean±s.e.m. **P<0.01, ***P<0.001; n.s., not significant, two-sided, unpaired t-test.
Following fertilization, paternal mitochondria are rapidly depolarized and damaged in fertilized eggs, which could generate and release reactive oxygen species (ROS) that affect PME and embryo development. We thus screened twelve small molecules derived from natural products that have been used as antioxidants for the potential activity in modulating PME (FIG. 6a), using a fluorescent microscopy assay. In this assay, C. elegans wild-type (N2) males prestained with Mitotracker Red (MTR), a mitochondrion-specific fluorescent dye, were mated with unstained N2 hermaphrodites in the presence of the compound of interest ([…]) and the cross-fertilized embryos were examined for the presence of MTR-stained paternal mitochondria or mitochondrial clusters.

[4] = test system: PME defect of cps-6(tm3222) embryos; assay: PME microscopy assay in cps-6(tm3222) crosses; format: in vivo, C. elegans; settings: 50 μM, 64-cell embryos (FIG. 3e-g)
Description: as §1, §2

[5] = test system: germline tumor in daf-16(mu86); cki-2(ok2105); glp-1(ar202) mutant (ET507); assay: germline tumor model (ET507); format: in vivo, C. elegans; settings: 200 μM, ET507 animals at 20° C.; for tumor size: adult day 5, vs 1% ethanol; for tumor occurring frequency: vs 1% ethanol
Description: FIG. 9. Cis-resveratrol inhibits and trans-resveratrol promotes germline tumor formation. Tumor size and tumor occurring frequency of the daf-16(mu86); cki-2(0k2105); glp-1 (ar202) mutant grown at 20° C. and treated with 1% ethanol (Mock), 200 μM cis-resveratrol (Cis), and 200 μM trans-resveratrol (Trans), respectively, are shown. Tumor assays were performed in triplicate with 100 animals per replicate. a, A five-stage classification was created to measure the tumor size in adult day 5 animals under the Normaski optic. Score 1 denotes the normal gonads seen in wild-type animals. Score 5 denotes enlarged gonads full of mitotic germ cells and without any egg or oocyte. Score 2-4 denote partially enlarged gonads. b, Tumor frequency indicates the percentage of animals with enlarged gonads (score 5). Data from three independent biological replicates are shown as mean±SEM. *P<0.05; **P<0.01; ***P<0.001, two-sided, unpaired t-test.
FIG. 14. stabilized cis-resveratrol inhibits germline tumor formation as well as cis-resveratrol. Tumor occurring frequency of the daf-16 (mu86); cki-2 (0k2105); glp-1 (ar202) mutant (ET507) grown at 20° C. and treated with 0.25% ethanol (Mock), 100 μM cis-resveratrol, and 100 μM Stabilized cis-resveratrol, respectively, are shown. Tumor assays were performed in triplicate with 100 animals per replicate. Data are mean±s.e.m. ****P<0.001, two-sided, unpaired t-test
The present inventors tested whether resveratrol isomers affect tumorigenesis in a C. elegans germline tumor model (ET507), in which three cell growth genes, daf-16, cki-2, and glp-1, are mutated, leading to uncontrolled germ cell proliferation and germline tumor.

| Compound | effect on PME defects in rad-23 deficient animals [1] | effect on PME defects of the lgg-1(bp523) mutant [2] | effect on PME when males were treated [3] | dynamics of PME at different embryonic stages [3] | effect on PME ([3]; 50 μM) | effect on PME when only hermaphrodites were treated ([3]; 50 μM, males mock treated (FIG. 3a)) | effect on PME of the UV-irradiated solution ([3]; 50 μM) | concentration sufficient to significantly affect PME [3] [µM] | concentration showing maximal PME activity [3] [µM] | average paternal mitochondrial clusters in 64-cell embryos ([3]; freshly prepared, 50 μM (FIG. 1d)) [clusters] | effect on PME defect in cps-6(tm3222) mutant and cps-6; lgg-1 and cps-6; rad-23 double mutants [4] | tumor size [5] | tumor occurring frequency [5] |
| --- | --- | --- | --- | --- | --- | --- | --- | --- | --- | --- | --- | --- | --- |
| Oc1ccc(/C=C\c2cc(O)cc(O)c2)cc1 [cis-resveratrol] | enhanced | enhanced | PME was suppressed | blocked rapid elimination of paternal mitochondria | inhibited PME better than the aged trans-resveratrol | PME proceeded normally | reduced PME inhibitory activity | 1 | 50 | 16 | neither cis-resveratrol nor trans-resveratrol could enhance or suppress the PME defect | reduces | reduces |
| Oc1ccc(/C=C/c2cc(O)cc(O)c2)cc1 [trans-resveratrol, 3,5,4′-trihydroxy-trans-stilbene] | inhibited | suppressed | only acted through males to enhance PME | accelerated elimination of paternal mitochondria; also recorded: identical activity in promoting PME | did not inhibit PME | – | acquired the activity to inhibit PME | 25 | 50 | – | neither cis-resveratrol nor trans-resveratrol could enhance or suppress the PME defect | increases | increases |
